Read-outs that look alike come from different tables or passages of the source.
What was measured:
tetrameric TTR [1] = biological target: T1, tetrameric TTR (Homo sapiens, UniProt P02766); assay: Fluorescent Probe Exclusion (FPE) assay on serum of Phase 1 subjects; format: in vivo; parameters: from tissue; host or cells: serum / blood plasma of dosed healthy human volunteers; details: single dose of 300 mg and 800 mg
tetrameric TTR [2] = biological target: T1, tetrameric TTR; assay: Phase 2 study, fluorescence probe (FPE) assay ex vivo; format: in vivo; parameters: monitoring TTR serum concentrations in trial participants; from tissue; host or cells: serum / plasma of ATTR-CM patients
Description: (§1) Aliquots of each serum sample are plated in 96 well plates. The fluorescence changes (λex=328 nm and λem=384 nm) after addition of probe are monitored every 15 min using a fluorescent capable microplate for 6 hr at RT.
(§2) The phase 2 clinical study was performed essentially as described in Example 3. A total of 49 patents were included instead of 45: 16 receiving 400 mg bid; 16 receiving 800 mg bid; and 17 receiving placebo.
(§3) TTR stabilization was measured ex vivo using the FPE and Western blot assays described at the beginning of the examples section. TTR stabilization was measured in vivo by monitoring TTR serum concentrations in trial participants.

[3] = Phase 1 (AG10-001) single ascending dose pharmacokinetics; format: in vivo, human; details: for Cmax / Tmax / concentration at 24 hr / AUC(0-t) / AUC(0-inf) / half-life: human, plasma; for concentration at 24 hr: read-out: C24
Description: Quantitation was performed using a weighted 1/x^2 linear least squares regression analysis generated from calibration standards prepared on the day of extraction.
One of the SAD cohorts received two 300 mg doses, one under fasted conditions and the other following a high fat test meal after an appropriate washout period.

[4] = Phase 2 study, tolerability in ATTR-CM patients; format: in vivo, human; details: symptomatic ATTR-CM patients, 28 days
Description: (§4) Screening and randomization will be followed by a 28-day blinded, placebo-controlled treatment period. Approximately 45 subjects are planned to enroll in the Phase 2 study.
as §2

[5] = Phase 1 (AG10-001) multiple ascending dose pharmacokinetics; format: in vivo, human; details: for Cmax / Tmax / AUC(0-t): human, plasma, oral, geometric mean; for AUC(0-t): read-out: AUC0-12
Description: Quantitation was performed using a weighted 1/x^2 linear least squares regression analysis generated from calibration standards prepared on the day of extraction. […]

TTR [6] = biological target: T2, TTR (Canis lupus familiaris, UniProt A0A8I3NFK0); assay: 7-day repeat oral dosing in dogs, TTR occupancy by FPE; format: in vivo, beagle dog
T2 construct: from tissue; host or cells: serum of orally dosed beagle dogs
Description: FPE assay for binding TTR in buffer and human or dog serum. […] The FPE probe is a thioester TTR ligand that is not fluorescent by itself, however upon binding to the T4 binding site of TTR it covalently modifies lysine 15 (K15), creating a fluorescent conjugate. Ligands that bind to the T4 site of TTR will decrease FPE probe binding as observed by lower fluorescence. The FPE assay was also adapted for use with dog serum. FPE with TTR in buffer: An aliquot of 98 μL of TTR in PBS (pH 7.4, final concentration: 2.5 μM) was mixed with 1 μL of test compounds (2.5 μM) and 1 μL of FPE probe (0.18 mM stock solution in DMSO: final concentration: 1.8 μM). The change in fluorescence (λex=328 nm and λem=384 nm) were monitored using a microplate spectrophotometer reader (SpectraMax M5) for 6 hr at rt. […] The change in fluorescence (λex=328 nm and λem=384 nm) were monitored using a microplate spectrophotometer reader (SpectraMax M5) for 6 hr at rt.
Blood (approximately 1.5 mL) was collected from a jugular vein into serum separator tubes on study day 1 (predose D1), pre-dose study day 7 (predose D7), and at 1 hr post-dose study day 7 (postdose D7). These serum samples were analyzed for their TTR occupancy using the FPE assay described above.

tetrameric TTR [7] = biological target: T3, tetrameric TTR (Homo sapiens, UniProt P02766, V50M); assay: Phase 2 study, fluorescence probe (FPE) assay ex vivo; format: in vivo; details: individual with V30M TTR mutation, 800 mg b.i.d.
T3 construct: monitoring TTR serum concentrations in trial participants; from tissue; host or cells: serum / plasma of ATTR-CM patients
Description: as §1, §2, §3

TTR [8] = biological target: TTR (Homo sapiens, UniProt P02766); assay: Phase 2 study in ATTR-CM patients, serum TTR concentration (ARUP Prealbumin assay); format: in vivo; parameters: monitoring TTR serum concentrations in trial participants; from tissue; host or cells: serum / plasma of ATTR-CM patients; details: WT
Description: as §4
An ARUP Prealbumin assay was also used to analyze TTR blood serum concentration in the MAD cohorts tested. ARUP analyzes samples for prealbumin using the prealbumin reagent kit provided by Roche Diagnostics and run on the Roche Diagnostics c702 module. Lowest reportable limit is 3 mg/dL.
as §2, §3

[9] = ATTR-CM patients, FPE vs plasma concentration
[10] = both sexes, oral, 300 mg, SAD Cohort 3, 300 mg, Fasted, geometric mean
[11] = both sexes, oral, 300 mg, SAD Cohort 3, 300 mg, Fed (high fat test meal), geometric mean
[12] = both sexes, po, 50 mg, single oral dose 50 mg AG10 HCl, healthy subjects, geometric mean ± SD
[13] = both sexes, po, 150 mg, single oral dose 150 mg AG10 HCl, healthy subjects, geometric mean ± SD
[14] = both sexes, po, 300 mg, single oral dose 300 mg AG10 HCl, healthy subjects, geometric mean ± SD
[15] = both sexes, po, 800 mg, single oral dose 800 mg AG10 HCl, healthy subjects, geometric mean ± SD

For Cc1n[nH]c(C)c1CCCOc1cc(C(=O)O)ccc1F [AG10, 3-(3-(3,5-dimethyl-1H-pyrazol-4-yl)propoxy)-4-fluorobenzoic acid], the “stabilization of TTR at peak concentrations (FPE assay)” value (tetrameric TTR [1]) was “complete stabilization”, the “target engagement by day 14 (fluorescence probe assay)” value (tetrameric TTR [2]; 400 mg b.i.d. and 800 mg b.i.d., trough and peak time points) was “near full target engagement” and the “blood plasma concentration at which full target engagement occurs” value (tetrameric TTR [2]; [9]) was “about 7.5 μM”. The “blood plasma concentration at which significant target engagement occurs” value (tetrameric TTR [2]; [9]) was about 5 µM, the “food effect on the pharmacokinetics” value ([3]; 300 mg, fed versus fasted state) was “minimal food effect” and the “mean Tmax” value ([3]; SAD cohorts 1-4, 50-800 mg AG10 HCl oral) was “under one”. It also gave a Cmax [3, 10] of 15.1 µM, a Tmax [3, 10] of 42.4 min and a concentration at 24 hr [3, 10] of 2.19 µM. For the same molecule, the Cmax [3, 11] was 10.2 µM, the Tmax [3, 11] was 95.4 min and the AUC(0-t) ([3]; both sexes, oral, 300 mg, SAD Cohort 3, 300 mg, Fed (high fat test meal), geometric mean, read-out: AUC0-24) was 111 µM·h. For the same molecule, the concentration at 24 hr [3, 11] was 2.69 µM, the AUC(0-inf) ([3]; both sexes, po, 50 mg) was 97.1 ± 12.1 µM·h and the Cmax [3, 12] was 7.2 ± 0.72 µM. For the same molecule, the Tmax [3, 12] was 53.5 ± 44.2 min, the AUC(0-t) ([3]; both sexes, po, 50 mg, single oral dose 50 mg AG10 HCl, healthy subjects, geometric mean ± SD, read-out: AUC0-24) was 58.9 ± 4.09 µM·h and the AUC(0-t) ([3]; both sexes, po, 50 mg, single oral dose 50 mg AG10 HCl, healthy subjects, geometric mean ± SD, read-out: AUClast) was 95 ± 11.8 µM·h. It also gave a concentration at 24 hr [3, 12] of 1.05 ± 0.13 µM, a half-life ([3]; both sexes, po, 50 mg, read-out: T1/2 (converted)) of 1500 ± 175 min and an AUC(0-inf) ([3]; both sexes, po, 150 mg) of 168 ± 46.8 µM·h. For the same molecule, the Cmax [3, 13] was 11.3 ± 4.76 µM, the Tmax [3, 13] was 50.9 ± 58.2 min and the AUC(0-t) ([3]; both sexes, po, 150 mg, single oral dose 150 mg AG10 HCl, healthy subjects, geometric mean ± SD, read-out: AUC0-24) was 93 ± 16.8 µM·h. For the same molecule, the AUC(0-t) ([3]; both sexes, po, 150 mg, single oral dose 150 mg AG10 HCl, healthy subjects, geometric mean ± SD, read-out: AUClast) was 166 ± 46 µM·h, the concentration at 24 hr [3, 13] was 1.78 ± 0.465 µM and the half-life ([3]; both sexes, po, 150 mg, read-out: T1/2 (converted)) was 1510 ± 215 min. It also gave an AUC(0-inf) ([3]; both sexes, po, 300 mg) of 191 ± 77 µM·h, a Cmax [3, 14] of 15.1 ± 3.6 µM and a Tmax [3, 14] of 42.4 ± 16.4 min. It also gave an AUC(0-t) ([3]; both sexes, po, 300 mg, single oral dose 300 mg AG10 HCl, healthy subjects, geometric mean ± SD, read-out: AUC0-24) of 100 ± 9.76 µM·h, an AUC(0-t) ([3]; both sexes, po, 300 mg, single oral dose 300 mg AG10 HCl, healthy subjects, geometric mean ± SD, read-out: AUClast) of 186 ± 73.8 µM·h and a concentration at 24 hr [3, 14] of 2.19 ± 0.435 µM. It also gave a half-life ([3]; both sexes, po, 300 mg, read-out: T1/2 (converted)) of 1320 ± 356 min, an AUC(0-inf) ([3]; both sexes, po, 800 mg) of 414 ± 87.5 µM·h and a Cmax [3, 15] of 37.8 ± 11.3 µM. It also gave a Tmax [3, 15] of 47.6 ± 15.5 min, an AUC(0-t) ([3]; both sexes, po, 800 mg, single oral dose 800 mg AG10 HCl, healthy subjects, geometric mean ± SD, read-out: AUC0-24) of 176 ± 27.7 µM·h and an AUC(0-t) ([3]; both sexes, po, 800 mg, single oral dose 800 mg AG10 HCl, healthy subjects, geometric mean ± SD, read-out: AUClast) of 410 ± 81.7 µM·h. For the same molecule, the concentration at 24 hr [3, 15] was 4.51 ± 0.565 µM, the half-life ([3]; both sexes, po, 800 mg, read-out: T1/2 (converted)) was 1610 ± 509 min and the half-life ([3]; both sexes, po, read-out: elimination half-life) was 1320 to 1620 min. The AUC(0-t) ([3]; oral, 300 mg, SAD Cohort 3, 300 mg, Fasted, geometric mean, read-out: AUC0-24) was 99.6 µM·h, the tolerability [4] was “well tolerated” and the “accumulation over 12 days of dosing” value ([5]; 100, 300, 800 mg every 12 hr for 12 days) was “No significant accumulation”. The Cmax ([5]; 100 mg, 100 mg q12 h, Day 1) was 8.67 µM, the Tmax ([5]; 100 mg, 100 mg q12 h, Day 1) was 47.6 min and the AUC(0-t) ([5]; 100 mg, 100 mg q12 h, Day 1) was 46.3 µM·h. The Cmax ([5]; 100 mg, 100 mg q12 h, Day 12) was 12.1 µM, the Tmax ([5]; 100 mg, 100 mg q12 h, Day 12) was 33.7 min and the AUC(0-t) ([5]; 100 mg, 100 mg q12 h, Day 12) was 70.3 µM·h. It also gave a Cmax ([5]; 300 mg, 300 mg q12 h, Day 1) of 14.3 µM, a Tmax ([5]; 300 mg, 300 mg q12 h, Day 1) of 42.4 min and an AUC(0-t) ([5]; 300 mg, 300 mg q12 h, Day 1) of 65.2 µM·h. For the same molecule, the Cmax ([5]; 300 mg, 300 mg q12 h, Day 12) was 23.5 µM, the Tmax ([5]; 300 mg, 300 mg q12 h, Day 12) was 33.7 min and the AUC(0-t) ([5]; 300 mg, 300 mg q12 h, Day 12) was 97.7 µM·h. It also gave a Cmax ([5]; 800 mg, 800 mg q12 h, Day 1) of 31.8 µM, a Tmax ([5]; 800 mg, 800 mg q12 h, Day 1) of 47.6 min and an AUC(0-t) ([5]; 800 mg, 800 mg q12 h, Day 1) of 120 µM·h. The Cmax ([5]; 800 mg, 800 mg q12 h, Day 12) was 42.5 µM, the Tmax ([5]; 800 mg, 800 mg q12 h, Day 12) was 53.5 min and the AUC(0-t) ([5]; 800 mg, 800 mg q12 h, Day 12) was 159 µM·h. The “TTR occupancy at the steady state trough” value (TTR [6]; 50, 100, 200 mg/kg/d oral, day 7 pre-dose) was 81-94%, the “TTR occupancy at steady state Cmax” value (TTR [6]; all AG10 treated groups, day 7 post-dose (1 hr)) was over 97% and the “target engagement at day 14 (FPE)” value (tetrameric TTR [7]) was “near complete target engagement”. The “Blood Serum TTR Concentration, Average Change” value (TTR [8]; 400 mg b.i.d.) was 32% and the “Blood Serum TTR Concentration, Average Change” value (TTR [8]; 800 mg b.i.d.) was 35%.
